Experimental data as given in ChEMBL document CHEMBL1201862, “PubChem BioAssay data set” (2004).
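Following 48 hours of exposure in 96-well plates, responses at five concentrations were used to interpolate endpoints linearly. At the GI50, growth is halved.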 Calls of active or inactive are those of the source. No stated cut-off is given here; in the data, active = GI50 up to about 1.1 µM and inactive = higher.

Tests used:
Experiment in all cases: growth of human tumour cells (NCI), 48 h
786-0 = test system: 786-0
A498 = test system: A498
BT-549 = test system: BT-549
EKVX = test system: EKVX
HCT-116 = test system: HCT-116
HCT-15 = test system: HCT-15
HOP-92 = test system: HOP-92
K562 = test system: K562
M14 = test system: M14
MCF7 = test system: MCF7
MDA-MB-231 = test system: MDA-MB-231
MDA-MB-435 = test system: MDA-MB-435
Malme-3M = test system: Malme-3M
NCI-H23 = test system: NCI-H23
SF-268 = test system: SF-268
SK-MEL-2 = test system: SK-MEL-2
SN12C = test system: SN12C
SR = test system: SR
SW-620 = test system: SW-620

SMILES | GI50 (786-0) | GI50 (A498) | GI50 (BT-549) | GI50 (EKVX) | GI50 (HCT-116) | GI50 (HCT-15) | GI50 (HOP-92) | GI50 (K562) | GI50 (M14) | GI50 (MCF7) | GI50 (MDA-MB-231) | GI50 (MDA-MB-435) | GI50 (Malme-3M) | GI50 (NCI-H23) | GI50 (SF-268) | GI50 (SK-MEL-2) | GI50 (SN12C) | GI50 (SR) | GI50 (SW-620)
O=c1oc2ccccc2cc1-c1ccc([N+](=O)[O-])cc1 | 9.29 µM (inactive) | 85.5 µM (inactive) | 16.5 µM (inactive) | > 100 µM (inactive) | 36.7 µM (inactive) | > 100 µM | > 100 µM (inactive) | > 100 µM (inactive) | > 100 µM (inactive) | > 100 µM (inactive) | > 100 µM (inactive) | > 100 µM (inactive) | > 100 µM (inactive) | > 100 µM (inactive) | 24.8 µM (inactive) | > 100 µM (inactive) | > 100 µM (inactive) | 57.9 µM (inactive) | 25.8 µM (inactive)
CCCCC(=O)Nc1ccc2cc(C(=O)OC)c(=O)[nH]c2n1 | > 100 µM (inactive) | > 100 µM (inactive) | > 100 µM (inactive) | > 100 µM (inactive) | > 100 µM (inactive) | > 100 µM | > 100 µM (inactive) | > 100 µM (inactive) | > 100 µM (inactive) | > 100 µM (inactive) | > 100 µM (inactive) | > 100 µM (inactive) | > 100 µM (inactive) | > 100 µM (inactive) | > 100 µM (inactive) | > 100 µM (inactive) | > 100 µM (inactive) | > 100 µM (inactive) | > 100 µM (inactive)
Cc1ccc2c(ccc3[nH]cc(CNc4ccc(NS(C)(=O)=O)cc4)c32)n1 | 17.8 µM (inactive) | 15.6 µM (inactive) | 35.4 µM (inactive) | 35.4 µM (inactive) | 18.7 µM (inactive) | 38.5 µM | 26.7 µM (inactive) | 18.7 µM (inactive) | 17.6 µM (inactive) | 19.3 µM (inactive) | 25.3 µM (inactive) | 16.8 µM (inactive) | 18.5 µM (inactive) | 18.7 µM (inactive) | 23 µM (inactive) | 18.6 µM (inactive) | 27.2 µM (inactive) | 21.8 µM (inactive) | 31.2 µM (inactive)
Nc1nc2c(ncn2Cc2ccccc2CO)c(=O)[nH]1 | > 100 µM (inactive) | > 100 µM (inactive) | > 100 µM (inactive) | > 100 µM (inactive) | > 100 µM (inactive) | > 100 µM | > 100 µM (inactive) | > 100 µM (inactive) | > 100 µM (inactive) | > 100 µM (inactive) | > 100 µM (inactive) | > 100 µM (inactive) | > 100 µM (inactive) | > 100 µM (inactive) | > 100 µM (inactive) | > 100 µM (inactive) | > 100 µM (inactive) | > 100 µM (inactive) | > 100 µM (inactive)
COc1ccc2c(c1)OCc1c-2oc2ccccc2c1=O | 45.7 µM (inactive) | > 100 µM (inactive) | > 100 µM (inactive) | > 100 µM (inactive) | > 100 µM (inactive) | > 100 µM | > 100 µM (inactive) | > 100 µM (inactive) | > 100 µM (inactive) | > 100 µM (inactive) | 30.1 µM (inactive) | > 100 µM (inactive) | > 100 µM (inactive) | 0.0895 µM (active) | 69.3 µM (inactive) | > 100 µM (inactive) | > 100 µM (inactive) | > 100 µM (inactive) | –
CCOP(=O)(OCC)C(NC(=O)OCC(Cl)(Cl)Cl)n1nnc(C(=O)OC)c1C(=O)OC (configuration not stated) | > 100 µM (inactive) | > 100 µM (inactive) | > 100 µM (inactive) | > 100 µM (inactive) | > 100 µM (inactive) | > 100 µM | > 100 µM (inactive) | > 100 µM (inactive) | > 100 µM (inactive) | > 100 µM (inactive) | > 100 µM (inactive) | > 100 µM (inactive) | > 100 µM (inactive) | > 100 µM (inactive) | > 100 µM (inactive) | > 100 µM (inactive) | > 10 µM (inactive) | > 100 µM (inactive) | > 100 µM (inactive)
N#CC(/N=N/c1ccc(Cl)cc1)c1nc2ccccc2o1 (configuration not stated) | 62.2 µM (inactive) | 49 µM (inactive) | 32.6 µM (inactive) | 34.5 µM (inactive) | 56.4 µM (inactive) | > 100 µM | 17.7 µM (inactive) | 15.5 µM (inactive) | > 100 µM (inactive) | > 100 µM (inactive) | 37 µM (inactive) | > 100 µM (inactive) | 34.6 µM (inactive) | 25.6 µM (inactive) | 33.3 µM (inactive) | 28.7 µM (inactive) | > 100 µM (inactive) | 43.7 µM (inactive) | –
CSc1ccc(/C=C2\N=C(c3ccccc3)N(/N=C3\C(=O)Nc4ccccc43)C2=O)cc1 | > 100 µM (inactive) | > 100 µM (inactive) | > 100 µM (inactive) | 38.7 µM (inactive) | > 100 µM (inactive) | > 100 µM | > 100 µM (inactive) | > 100 µM (inactive) | > 100 µM (inactive) | > 100 µM (inactive) | > 100 µM (inactive) | > 100 µM (inactive) | > 100 µM (inactive) | > 100 µM (inactive) | > 100 µM (inactive) | > 100 µM (inactive) | > 100 µM (inactive) | 22.6 µM (inactive) | > 100 µM (inactive)
CC1(C)OC[C@@H]([C@@]2(COC(c3ccccc3)(c3ccccc3)c3ccccc3)CC=CC(=O)O2)O1 | 35.1 µM (inactive) | 22 µM (inactive) | 24.2 µM (inactive) | 30.9 µM (inactive) | 30.3 µM (inactive) | 31.1 µM | 19.4 µM (inactive) | 32.8 µM (inactive) | 39.7 µM (inactive) | 21.8 µM (inactive) | 41.7 µM (inactive) | 33.1 µM (inactive) | 24.7 µM (inactive) | 42.1 µM (inactive) | 45.5 µM (inactive) | 11.2 µM (inactive) | 30.8 µM (inactive) | 33 µM (inactive) | 40.1 µM (inactive)
NC(Cc1ncccn1)C(=O)O (configuration not stated) | > 100 µM (inactive) | > 100 µM (inactive) | > 100 µM (inactive) | > 100 µM (inactive) | > 100 µM (inactive) | > 100 µM | > 100 µM (inactive) | > 100 µM (inactive) | > 100 µM (inactive) | > 100 µM (inactive) | > 100 µM (inactive) | > 100 µM (inactive) | > 100 µM (inactive) | > 100 µM (inactive) | > 100 µM (inactive) | > 100 µM (inactive) | > 100 µM (inactive) | > 100 µM (inactive) | > 100 µM (inactive)
O=C(O)C(F)(F)C(F)(F)C(F)(F)C(F)(F)C(=O)O | > 100 µM (inactive) | > 100 µM (inactive) | > 100 µM (inactive) | > 100 µM (inactive) | > 100 µM (inactive) | > 100 µM | > 100 µM (inactive) | > 100 µM (inactive) | > 100 µM (inactive) | > 100 µM (inactive) | > 100 µM (inactive) | > 100 µM (inactive) | > 100 µM (inactive) | > 100 µM (inactive) | > 100 µM (inactive) | > 100 µM (inactive) | > 100 µM (inactive) | > 100 µM (inactive) | > 100 µM (inactive)
